Laboratory results published in a melting point compilation (Tetko et al.; mined from patent text by program, amines drawn as free bases though some values may be those of a salt).

Row | Compound | melting point
1 | O=C(O)COc1ccc([N+](=O)[O-])c(C(F)(F)F)c1 | 92 to 95 °C
2 | CC(C(N)=O)c1ccc2c(c1)Sc1ccccc1CC2=O (stereo not given) | 178 to 179 °C
3 | Cn1nnc(-c2cccnc2)n1 | 108 to 110 °C
4 | Nc1nc(N)c(C(=O)NC(Cc2ccccc2)C(=O)NCCNCC(O)COc2cccc3ccccc23)nc1Cl (stereo not given) | 142 to 146 °C
5 | CN1C(O)=C(C(=O)Nc2ccc(Br)cc2)c2cscc2S1(=O)=O | 138 to 140 °C
6 | COc1nc(Cl)cc2nc(S(=O)(=O)Nc3nn(C)cc3Br)nn12 | 230 to 232 °C
7 | O=C(NC(Cc1ccc(OCc2ccccc2)cc1)C(=O)O)c1cn2cc(-c3ccccc3F)ccc2n1 (stereo not given) | 238 °C
8 | CN(C)c1ccc2nc(N)c(C#N)c(NCc3cccs3)c2c1 | 211 °C
9 | Cn1c(COc2ccc(CC3SC(=O)NC3=O)cc2)nc2ccc(Oc3ccc4cccc(NC(=O)Nc5ccc(F)cc5F)c4c3)cc21 (stereo not given) | 222 to 224 °C
10 | O=C(O)c1ccc2c(c1)CCc1ccc(O)cc1C2=O | 256 to 257 °C
11 | Nc1ccnc(CCCCCN2C(=O)c3ccccc3C2=O)n1 | 101 to 104 °C
12 | Cc1ccc(C)n1-c1cc2c(cc1C(F)(F)F)[nH]c(=O)c(=O)n2CC(=O)O | > 270 °C
13 | CN1CCN(Cc2cc(-c3ccc4c(c3)CCO4)nn(CC=Cc3ccc(Cl)cc3)c2=O)CC1 | 112 to 113 °C
14 | CN(C)CCC(=O)n1cc(-c2ccccc2)c2ccccc21 | 137 to 138 °C
15 | COc1ccccc1-n1c(=O)[nH]c2c(C(N)=O)nc(N[C@@H]3CCNC3)nc21 | > 400 °C
16 | CCOCc1nc2c(N)nc3c(c2n1CC1(O)CCCC1)CCCC3 | 171 to 173 °C
17 | O=C(NCC1CCCCC1)c1c(Cl)ccc2nc(N3CC(NCCO)C3)ccc12 | 150 to 151 °C
18 | CCSc1cc(SCC)c2ccc3c(SCC)cc(SCC)c4ccc1c2c43 | 180 °C
19 | CCc1cc2c(s1)-n1c(C)nnc1C(CCCCC(=O)Nc1ccccc1)N=C2c1ccc(Cl)cc1 (stereo not given) | 238 to 240 °C
20 | NCC1Cc2cccc(-c3cccc4ccccc34)c2O1 (stereo not given) | 120 to 124 °C
21 | CCOC(=O)/C=C(C)/C(F)=C/C=C(C)/C=C/c1c(C)cc(OC)c(C)c1Cl | 115 to 117 °C
22 | CCOC(=O)c1c[nH]n(Cc2ccccc2)c1=O | 79 to 81 °C
23 | CCCCN(CCCC)c1ccc(C=Cc2ccc(C=CC3=C(C#N)C(=C(C#N)C#N)OC3(C)C(F)(F)F)s2)c(OC)c1 (stereo not given) | 191 to 193 °C
24 | CCn1cnc2c(Nc3ccc(C(F)(F)F)cc3)nc(NCCO)nc21 | 191 to 192 °C

Row | Compound | melting point
25 | Cc1nc(CC(C)C)c(CN)c(-c2ccc(Cl)cc2)c1C(=O)OC(C)(C)C | 81 to 83 °C
26 | CC1=N/C(=C\c2cccnc2)C(=O)O1 | 173 °C
27 | COc1cc(OC)cc(-c2oc3ncnc(NC4CCCCCC4)c3c2-c2ccccc2)c1 | 151 to 152 °C
28 | O=C1C2=C(CCCC2)C(=O)N1c1cc(CO)c(Cl)cc1F | 135 to 137 °C
29 | O=C(O)c1cnn2c(C(F)(F)F)cc(-c3ccc(OC(F)(F)F)cc3)nc12 | 225 °C
30 | O=CC(=Cc1ccccc1OCc1ccccc1)C(C=O)=Cc1ccccc1OCc1ccccc1 | 120 to 121 °C
31 | CCc1ccc2c(c1)cc(C(=O)Nc1nc(-c3c(OC)cc(C)cc3OC)n(CCC3CCCCC3)n1)n2CC(=O)O | 198 °C
32 | COc1cc(COc2nn(-c3ccccc3)cc2CC#N)ccc1OCc1nc(-c2ccccc2)oc1C | 137 to 138 °C
33 | CCCCCC(CCCCC)=NN=C1NC(=O)C(CC(=O)O)S1 (stereo not given) | 134 to 135 °C
34 | Cc1sc(N)c(C(=O)c2ccc(Cl)cc2)c1CN(C)Cc1ccccc1 | 114 to 116 °C
35 | Cc1nnc(-c2ccc3occ(-c4ccc(F)cc4)c3c2)o1 | 130 to 131 °C
36 | CCOC(=O)C(Cc1ccc(O)cc1)c1cc2cc(C#N)ccc2s1 (stereo not given) | 146 to 147 °C
37 | COc1ccc2c(c1)C(=O)C(=Cc1ccc(F)cc1)CC2 | 129 to 130 °C
38 | O=C1COCC2=C1C(c1ccc(F)c(Br)c1)C1=C(COC1=O)N2 (stereo not given) | 166 to 168 °C
39 | CC=Cc1c(-c2ccc(S(C)(=O)=O)cc2)cnn(-c2ccc(F)c(F)c2)c1=O | 149 to 150 °C
40 | CCC(CC)c1ccc(CN2CCCC2)c2nc(Oc3c(C)cc(Cl)cc3Cl)n(C)c12 | 107 to 108 °C
41 | COC(=O)c1cc(-n2cnnc2)c(C(F)(F)F)cc1N | 184 to 186 °C
42 | CC(C)C[C@H](NC(=O)OCc1ccccc1)C(=O)N[C@@H](CCc1ccccc1)C(=O)CSCc1ccco1 | 73 to 77 °C
43 | Cc1ccc(C(CC(=O)O)C(C#N)c2cccnc2)cc1 (stereo not given) | 185 to 187 °C
44 | O=C(O)c1ccccc1-c1ccc(C(F)(F)F)c(Cl)c1 | 181 to 184 °C
45 | c1ccc(CNc2nnc(-c3ccc(CN4CCCCCC4)s3)s2)cc1 | 165 to 166 °C
46 | CC1=C(C)C2=NC(C)(C(C)C)C(=O)N2C1=O (stereo not given) | 98 to 99 °C
47 | O=C(OC(c1ccccc1)c1ccccc1)C(O)Cc1ccc(F)cc1 (stereo not given) | 52 to 54 °C
48 | CN1CCN(C2=Cc3cc(Cl)ccc3C(=CC#N)c3ccccc32)CC1 | 196 to 198 °C

Row | Compound | melting point
49 | CC[Si](CC)(CC)c1ccc2c(c1)cc(C(=O)Nc1ccc(N3CCC3)nc1)n2Cc1cccc(F)c1 | 166 to 168 °C
50 | CNC(=O)c1ccccc1Nc1nc(Nc2cccc3c2N(C)CCNC3=O)ncc1Cl | 282 to 284 °C
51 | CC(=O)N1N=C(c2ccc(N)cc2)c2cc(Br)ccc2CC1C (stereo not given) | 205 to 208 °C
52 | CCOC(=O)COc1cc2c(c(Cl)c1Cl)C(=O)C(c1ccc(F)cc1)C2 (stereo not given) | 143 to 144 °C
53 | O=C(NC1CCOC1=O)c1cc2c(n(CC3CCCCC3)c1=O)CCCCCC2 (stereo not given) | 136 to 140 °C
54 | CN(C)CCCOc1ccc(N2N=C3c4cc(F)ccc4CCC3CC2=O)cc1 (stereo not given) | 118 to 120 °C
55 | COC(=O)C1=C(C)NC(C)=C(C(=O)OCCCOc2ccc(CCCCO)cc2)C1c1cccc([N+](=O)[O-])c1 (stereo not given) | 72 °C
56 | C#CCn1c(I)cc(C(O)C(C)(C)C)c(C)c1=O (stereo not given) | 105 to 106 °C
57 | Cc1cccc(CSc2c(O)cc(-c3ccccc3)oc2=O)c1 | 139 to 140 °C
58 | CN1C/C(=C/C(=O)Nc2ccc(Cl)nn2)C[C@@H]2c3cccc4[nH]cc(c34)C[C@H]21 | 242 to 243 °C
59 | CCc1c(CO)c(CO)c2n1-c1ccccc1C2 | 131 to 133 °C
60 | O=C(O)Cc1cccc(Cn2cc(C3c4ccccc4C=Cc4ccccc43)c(=S)[nH]c2=O)c1 | 135 to 137 °C
61 | CC1=C(C(=O)OC(C)(C)C)C(c2ccccc2)C(C(=O)OC(C)(C)C)=C(C)N1 | 187 to 188 °C
62 | O=C1CCC(O)(c2ccc(Cl)c(Cl)c2)CN1Cc1ccccc1 (stereo not given) | 128 °C
63 | COc1ccc(S(=O)(=O)c2cc3c(cc2C)OC(C(=O)O)O3)cc1NC(C)=O (stereo not given) | 230 °C
64 | CC(CC(O)(CNc1ccc2c(c1)COC2=O)C(F)(F)F)c1ccccc1 (stereo not given) | 110 °C
65 | Cc1cc(C#N)cc(C)c1Oc1nc(Nc2ccc(C#N)cc2)ncc1N | > 300 °C
66 | CC(Oc1ccc(Cl)c(Cl)c1)c1nnc(N)s1 (stereo not given) | 136 to 138 °C
67 | CCCc1nn(-c2ccc(C(F)(F)F)cn2)cc1CCCCOc1cc(CCC(=O)O)n(C)n1 | 122 to 123 °C
68 | Cc1oc2ccccc2c1C(=O)O | 171 to 176 °C
69 | NC(=O)C(=O)Nc1nc(-c2oncc2-c2c(F)cccc2Cl)cs1 | 235 to 237 °C
70 | Cc1cccc(N2CCC(N)=N2)c1 | 119 to 120 °C
71 | O=c1cc(-c2ccccc2)oc2c(CN3CCC(O)CC3)c(O)c(O)c(O)c12 | 221 °C
72 | COc1cc(CNC(=O)c2ccccc2)cc(OC)c1OC | 113 to 115 °C

Row | Compound | melting point
73 | CCCCn1ccc(-c2ccc(Oc3ccc(C(=O)O)cc3)cc2)c(Cl)c1=O | 280 °C
74 | Cc1c(Nc2c(C#N)cnc3sc(C(=O)O)cc23)ccc2[nH]ccc12 | 287 °C
75 | CCCCCCCCCC(=O)Nc1ccc(S(=O)(=O)Nc2nnc(C(C)(C)C)s2)cc1 | 156 to 157 °C
76 | CN1CCC(c2cnn3c(-c4cccc(NC(=O)c5cccc(C(F)(F)F)c5)c4)ccnc23)CC1 | 183 to 185 °C
77 | CCCc1nccn1-c1nc(Cl)nc2c1ncn2C1OC(COC(C)=O)C(OC(C)=O)C1OC(C)=O (stereo not given) | 126 to 128 °C
78 | CO/C(=C\C=C\c1cc2ccccc2[nH]1)C(=O)NCc1ccccc1 | 204 to 205 °C
79 | CCNc1ccc(NS(=O)(=O)c2ccc(C)cc2)c(C)c1 | 162 to 163 °C
80 | Cc1nnc2n1-c1ccc(NC(=O)NCCO)cc1C(c1ccccc1F)=NC2 | 228 to 230 °C
81 | CCOC(=O)C1=C(C(C)C)Nc2n[nH]cc2C1c1ccccc1[N+](=O)[O-] (stereo not given) | 205 to 206 °C
82 | CCCCOc1cc(CCC(=O)O)ccc1OCCCc1cn(-c2ccc(C(F)(F)F)cn2)nc1OCC | 92 to 93 °C
83 | O=C1N(C(c2ccccc2)c2ccccc2)c2ccccc2C1(O)c1cc2c(cc1O)OCCO2 (stereo not given) | 210 to 212 °C
84 | CC(C)(C)c1cc(NC(=O)Nc2ccc(Oc3cccc(NC(=O)OCc4ccccc4)c3)cc2)no1 | 73 to 75 °C
85 | CC(=O)Nc1ccc2c(c1)[nH]c(=O)c(=O)n2CP(=O)(O)O | 120 °C
86 | O=C(Nc1cc(Cl)cc(Cl)c1)c1ccccc1SSc1ccccc1C(=O)Nc1cc(Cl)cc(Cl)c1 | 235 to 236 °C
87 | COC(=O)c1c(C)c([N+](=O)[O-])cc2nc(OC)c(OC)nc12 | 174 to 176 °C
88 | O=C1CCCN(C(=O)c2ccc([N+](=O)[O-])cc2Cl)c2ccccc21 | 140 to 143 °C
89 | CC(C)(C)C=NNC(=O)OCc1ccccc1 | 74 to 74.5 °C
90 | O=Cc1c2ccccc2cc2cc3ccccc3cc12 | 163 to 164 °C
91 | COC(=O)c1ccc(/C=C/C(=O)NOC2CCCCO2)s1 (stereo not given) | 177 °C
92 | COC(=O)c1ccc(-c2ccc3cc(OS(=O)(=O)C(F)(F)F)c(C45CC6CC(CC(C6)C4)C5)cc3c2)cc1 | 226 to 227 °C
93 | O=P(O)(O)CCCCC(F)(F)C(F)(F)C(F)(F)C(F)(F)F | 123 to 124 °C
94 | CCC(C(=O)C(C)C(O)C(C)CCc1c(N=Nc2ccccc2)cc(C)c(O)c1C(=O)O)C1OC(CC)(C2CCC(O)(CC)C(C)O2)CC1C (stereo not given) | 212 to 215 °C
95 | CC(=O)C(=NNc1ccccc1)C(=O)NCc1ccccc1 | 101 to 103 °C
